Laboratory results: US20240197869A1, “HYPERACTIVATORS OF MAMMALIAN DENDRITIC CELLS” (Corner Therapeutics, Inc., priority 2021, published 2024)
Entries after “also recorded” stand apart in the source; their conditions may differ. Residues, ends and D or L forms follow the SMILES beside them. *: point of attachment. X1 = CCCCCCCCCCCCCCCC(=O)OCC(C*)OC(=O)CCCCCCCCCCCCCCC

Tests used:
human PBMCs [1] = test: Cytokine secretion (IL-1β, IFNγ, TNFα) by human PBMCs; assay type: cell-based; details: 2 days
Procedure: (§1) Isolation of PBMCs from Whole Blood. PBMCs were isolated from whole blood using density gradient centrifugation with Ficoll-Paque PLUS (Cytivia). Whole blood was diluted 1:1 with PBS, layered on top of Ficoll-Paque PLUS and centrifuged at 1000×g for 30 minutes at room temperature. PBMCs were collected, washed twice in PBS, and incubated with Ack lysis buffer (Lonza) to remove any remaining red blood cells.
(§2) Cell Culture and Stimulation. […] Cells were plated at 1×10^5 (canine cells) or 1×10^6 (human cells) per well in 96-well flat bottom tissue culture plates. Lyophilized Vaccigrade R848 (Invivogen) was reconstituted and diluted according to manufacturer's recommendations and added to cells at a final concentration of 1 μg/mL.
Quantification of Cytokine Secretion. IL-1β secretion from human PBMCs was assessed using one of the following kits: ELISA MAX Deluxe Set Human IL-1β kit (Biolegend), Invitrogen Human IL-1β kit, or the Lumit™ Human IL-1β Immunoassay (Promega). IFNγ secretion from human PBMCs was assessed using the ELISA MAX Deluxe Set Human IFNγ (Biolegend) and TNFα secretion from human PBMCs was assessed using the Human TNFα Uncoated ELISA kit (Invitrogen). ELISAs were performed according to manufacturer's instructions with the following modifications: i) total sample+buffer volume for incubation was reduced from 100 μL to 50 μL; ii) the top standard was prepared at […], with two-fold dilutions to […]; and iii) sample incubation was completed overnight at 4 C on an orbital shaker. Lumit™ assays were performed according to manufacturer's instructions. IL-1β secretion from canine PBMCs was assessed using the Canine IL-1β/IL-1F2 DuoSet ELISA (R&D) according to manufacturer's instructions with the following modifications: i) total sample+buffer volume for incubation was reduced from 100 μL to 50 μL; ii) sample incubation was completed overnight at 4° C. on an orbital shaker. For all ELISAs, absorbance was measured at 450 nm, with a 570 nm correction, using a Spectramax M5e plate reader (Molecular Devices). For Lumit™ assays, luminescence was measured on all wavelengths using a Spectramax M5e plate reader (Molecular Devices) with an integration time of 500 ms. To determine cytokine concentrations in supernatants, sample concentrations were interpolated using a standard curve via 4PL analysis on GraphPad Prism 9 (GraphPad Software). The interpolated results of samples were then adjusted for any dilutions made to the supernatant.

[2] = tested on: canine peripheral blood mononuclear cells (PBMCs); test: IL-1β secretion by canine PBMCs (ELISA); assay type: cell-based; details: stimulus as labelled, no hyperactivating lipid, 2 days
Procedure: as §1, §2
Quantification of Cytokine Secretion. IL-1β secretion from human PBMCs was assessed using one of the following kits: ELISA MAX Deluxe Set Human IL-1β kit (Biolegend), Invitrogen Human IL-1β kit, or the Lumit™ Human IL-1β Immunoassay (Promega). IFNγ secretion from human PBMCs was assessed using the ELISA MAX Deluxe Set Human IFNγ (Biolegend) and TNFα secretion from human PBMCs was assessed using the Human TNFα Uncoated ELISA kit (Invitrogen). […] IL-1β secretion from canine PBMCs was assessed using the Canine IL-1β/IL-1F2 DuoSet ELISA (R&D) according to manufacturer's instructions with the following modifications: i) total sample+buffer volume for incubation was reduced from 100 μL to 50 μL; ii) sample incubation was completed overnight at 4° C. on an orbital shaker. For all ELISAs, absorbance was measured at 450 nm, with a 570 nm correction, using a Spectramax M5e plate reader (Molecular Devices). For Lumit™ assays, luminescence was measured on all wavelengths using a Spectramax M5e plate reader (Molecular Devices) with an integration time of 500 ms. […]

[3] = tested on: human monocyte-derived dendritic cells (moDCs); test: DAMP screen: viability of human moDCs (CellTiter-Glo)
Procedure: Danger-Associated Molecular Pattern (DAMP) Screen. After 6 days of differentiation into moDC, cells were collected and counted. Cells were plated at 100,000 cells/well in R10 media in 96-well flat bottom tissue culture-treated plates. LPS, serotype O55:B5 (Enzo Life Sciences) was added to a final concentration of 1 μg/mL in each well. […] Cells were incubated at 37° C., 5% CO2 for two days. Cell cultures were then used for endpoint analyses.
Endpoint Analyses. After culturing moDCs with PAMPs and DAMPs for two days, supernatant and cell samples were collected for analysis.
(§6) Quantification of Cell Viability. Cell viability was assessed by quantifying the presence of ATP as an indicator of metabolically active cells using the CellTiter-Glo Luminescent Cell Viability Assay (Promega). Metabolic activity was assessed following manufacturer's instructions. The CellTiter-Glo reagent was mixed with the cell pellets and remaining supernatant, and transferred to a white, opaque 96-well plate. Luminescence was measured on all wavelengths on a Spectramax iD3 plate reader (Molecular Devices) using an integration time of 500 ms. Percent viability was calculated relative to the control condition of moDCs treated with LPS.

[4] = tested on: human memory CD4+ T cells; test: Human moDC coculture with memory CD4 T cells: cytokine secretion; assay type: cell-based; details: moDC treated with R848 + lipid; limiting anti-CD3; 2 days after T cell addition
Description: Human moDC coculture with memory CD4 T cells. Human monocytes were isolated from leukopheresis products using Miltenyi StraightFrom LeukoPak CD14 microbeads as directed by manufacturer. Custom PBMC isolation microbead kits from Miltenyi were used to separate PBMCs from red blood cells and granulocytes from the same blood products. After PBMC purification, Miltenyi human memory CD4+ T cell isolation kits were used to negatively select the CD45RO+ fraction. Cells were cryogenically stored until ready for use in experiments.
Human monocytes were differentiated into dendritic cells as previously described using recombinant human GM-CSF and IL-4 for 6 days. moDCs were plated in R10 media at 5E4 cells/well into 96-well U-bottom microplates for hyperactivations. […] T cell stimulating anti-CD3 antibody was added into the culture (with or without blocking anti-IL-1beta antibody) prior to T cell addition. Autologous frozen memory CD4 T cells were thawed, resuspended in R10 media and added at 2.5×10^5 cells/well (ratio 1:5, DC:T cell). After two days incubation, cell culture supernatant was collected and used for measuring cytokine secretion. Commercially available kits such as Biolegend LegendPlex kits were used as directed by manufacturer's protocol to quantify cytokines of interest.
Four donors were tested with each experimental condition tested in triplicate. […]

[5] = tested on: human monocyte-derived dendritic cells (moDCs); test: Lipid titration: viability of human moDCs (CellTiter-Glo)
Procedure: Lipid Titration. After 6 days of differentiation into moDC, cells were collected and counted. Cells were replated at 100,000 cells/well in R10 media in 96-well flat bottom tissue culture-treated plates. LPS, serotype 055:B5 (Enzo Life Sciences) was added to a final concentration of 1 μg/mL in each well. After the addition of LPS, lipids were prepared. […] After two days of culture, cell cultures were used for endpoint analyses.
Endpoint Analyses. After culturing moDCs with PAMPs and DAMPs for two days, supernatant and cell samples were collected for analysis. Cells in culture were pelleted by centrifugation at 400×g for 5 min.
as §6
Statistical Analyses. […] For each tested condition, cells from each donor were plated to be tested in triplicate.

[6] = tested on: human monocyte-derived dendritic cells (moDCs); test: Lipid titration: IL-1β secretion by LPS-activated human moDCs; assay type: cell-based; details: for Activity Units (AU) ± SD (lipid activity index): reciprocal of lowest concentration giving IL-1β two-fold over LPS x highest IL-1β signal, lipid 1.3-82.5 μM + LPS
Procedure: (§3) Quantification of IL-1beta Secretion. IL-1beta secretion was assessed using the ELISA MAX Deluxe Set Human IL-1beta kit (Biolegend). ELISAs were performed according to manufacturer's instructions with the following modifications: i) total sample volume for incubation was reduced from […] the top standard was prepared at […], with two-fold dilutions to […]; and iii) sample incubation was completed overnight at 4 C on an orbital shaker. […] To determine IL-1beta concentration in supernatants, sample IL-1beta concentrations were interpolated using a standard curve via 4PL analysis on GraphPad Prism 9 (GraphPad Software). The interpolated results of samples were then adjusted for any dilutions made to the supernatant.

[7] = tested on: human monocyte-derived dendritic cells (moDCs); test: DAMP screen: IL-1β secretion by LPS-activated human moDCs (ELISA); assay type: cell-based
Procedure: Danger-Associated Molecular Pattern (DAMP) Screen.
as §3

[8] = tested on: canine peripheral blood mononuclear cells (PBMCs); test: Viability of canine PBMCs (CellTiter-Glo); assay type: cell-based; details: lipid combined with R848, 2 days; relative to R848 alone
Procedure: as §1, §2
(§4) Quantification of Cell Viability.

non-human primate PBMCs = test: Cytokine secretion by non-human primate PBMCs (LegendPlex); assay type: cell-based, cynomolgus macaques
Procedure: Non-human primate PBMC hyperactivation. Whole blood from cynomolgus macaques was diluted with an equal volume of PBS. A solution of 90% Ficoll-Paque PLUS and 10% RPMI was made, and diluted whole blood was overlayed on top of the diluted Ficoll. Cells were centrifuged at 1000 rcf for 30 minutes at room temperature with no brakes. The buffy coat layer was collected and washed twice with PBS. If red blood cell contamination was present, cells were incubated in ACK lysis buffer for 2 minutes before being washed with PBS to remove lysed red blood cells.
Isolated PBMC were plated at 1×10^6 cells/well and cultured with or without hyperactivating stimuli. After 2 days incubation, cells were assessed for viability, and cell culture supernatant was used to measure cytokine output. Commercially available kits such as Biolegend LegendPlex kits were used as directed by manufacturer's protocol to quantify cytokines of interest.
PBMC were obtained from 13 cynomolgus macaques. Each activation condition was tested in triplicate, and the mean value of the triplicate is graphed for the animal sample. Repeated measures one-way ANOVA was used to test for statistical significance followed by Dunnett's multiple comparisons test.

human PBMCs [9] = test: Viability of human PBMCs (CellTiter-Glo); assay type: cell-based; details: 2 days post-activation; lipids combined with R848
Procedure: as §1, §2, §4

[10] = tested on: human monocyte-derived dendritic cells (moDCs); test: PAMP screen: viability of human moDCs with PRR agonist and 22:0 Lyso PC; assay type: cell-based; details: 2 days
Procedure: (§5) Pathogen-Associated Molecular Pattern (PAMP) Screen. Innate immune signaling pathway agonists were purchased from Invivogen. Lyophilized stocks were reconstituted and stored according to manufacturer's instructions and at recommended concentrations. […] Innate immune signaling agonists were diluted in R10 media to the manufacturer's recommended working concentration and then added onto cells. 22:0 Lyso PC was then reconstituted from a lyophilized stock in R10 and then further diluted. The lipid was added onto cells at a final concentration of 20 μM. Cells were incubated for 2 days, then cultures were collected for endpoint analyses.
as §4

[11] = tested on: human monocyte-derived dendritic cells (moDCs); test: PAMP screen: IL-1β secretion by human moDCs with PRR agonist and 22:0 Lyso PC; assay type: cell-based; details: 2 days
Procedure: as §5, §3

[12] = stimulus as labelled, no hyperactivating lipid
[13] = 41.3 μM lipid + LPS 1 μg/mL, 2 days, relative to LPS-treated moDCs, Table 1-2
[14] = 82.5 μM lipid + LPS 1 μg/mL, 2 days, relative to LPS-treated moDCs, Table 1-1
[15] = 82.5 μM lipid + LPS, selected lipids, Table 1-3 (repeats Table 1-1)
[16] = 10.3 μM lipid + LPS 1 μg/mL, 2 days, relative to LPS-treated moDCs, Table 1-5
[17] = 10.3 μM lipid + LPS 1 μg/mL, 2 days, Table 1-5
[18] = 20.6 μM lipid + LPS, human moDCs, 4 donors, mean (SD in wrapped line below)
[19] = 41.3 μM lipid + LPS 1 μg/mL, 2 days, Table 1-2
[20] = 82.5 uM lipid + R848 vs R848 alone, 2 days
[21] = high dose PAMP + 22:0 Lyso PC 20 μM

## Nc1nc2c(ncn2[C@@H]2O[C@@H]3COP(=O)(O)O[C@H]4[C@@H](O)[C@H](n5cnc6c(N)ncnc65)O[C@@H]4COP(=O)(O)O[C@@H]2[C@@H]3O)c(=O)[nH]1 [2′3′cGAMP, reference compound]
Human PBMCs [1]; [12]
  IFNγ secretion, fold change relative to R848 alone (in words): neither GM-CSF nor 2′3′cGAMP elicited a substantial fold change in IFNγ secretion over R848 alone
[2]
  IL-1β secretion (in words): neither GM-CSF nor 2′3′cGAMP induced significant IL-1β secretion

## CCCCCCCCCC(=O)OC[C@@H](O)COP(=O)([O-])OCC[N+](C)(C)C [10:0 LYSO PC]
[3]; [13]
  Relative Viability (%) ± SD: 97.8%
[3]; [14]
  Relative Viability (%) ± SD: 95.2%
[3]; [15]
  Relative Viability (%) ± SD: 95.2%
[4]
  IFN-gamma (Th1 response) from cocultured memory CD4 T cells (in words): not detected
[5]; [16]
  Relative Viability (%) ± SD: 100.5%
[5]; 20.6 μM lipid + LPS, human moDCs, 4 donors, relative to LPS alone
  Relative Viability (%) ± SD: 100.4%
[6]; [17]
  IL-1β secretion: 35.7 pg/mL
[6]; [18]
  IL-1β secretion: 35.2 pg/mL
[6]
  Activity Units (AU) ± SD (lipid activity index): 0.00 ± 0.00 AU
[7]; [19]
  IL-1β secretion: 33.3 pg/mL
[7]; [15]
  IL-1β secretion: 37.8 pg/mL

## CCCCCCCCCCCCCCCC(=O)OC[C@H](COP(=O)([O-])OCC[N+](C)(C)C)OC(=O)CCCC(=O)O [PGPC, 1-palmitoyl-2-glutaryl-sn-glycero-3-phosphocholine, reference compound]
[8]
  relative cell viability (in words): somewhat toxic to canine PBMCs
[3]; [13]
  Relative Viability (%) ± SD: 87.2%
[3]; [14]
  Relative Viability (%) ± SD: 58.6%
[3]; [15]
  Relative Viability (%) ± SD: 58.6%
[3]; human moDCs, lipid screens of Example 1
  moDC viability (in words): not observed to be toxic
non-human primate PBMCs; 41.3 uM lipid + R848
  cytokine fold changes relative to R848 alone (in words): not as markedly increased
non-human primate PBMCs; 82.5 uM lipid + R848 1 μg/mL vs R848 alone, 2 days
  IL-1beta output (in words): increased the IL-1beta output
non-human primate PBMCs; [20]
  IFN-beta secretion (in words): increased
  IFN-gamma secretion (in words): significantly increased
  IL-8 secretion (in words): increased
  IL-17a secretion (in words): increased
  IL-23 secretion (in words): increased
Human PBMCs [1]; lipid 82.5 μM combined with R848 1 μg/mL
  IL-1β secretion (in words): did not induce substantially higher levels of IL-1β than R848 alone
[5]; [16]
  Relative Viability (%) ± SD: 98.5%
Human PBMCs [9]
  human PBMC viability (in words): not observed to be toxic
[6]; [17]
  IL-1β secretion: 52.8 pg/mL
[6]; [18]
  IL-1β secretion: 69.2 pg/mL
[6]
  Activity Units (AU) ± SD (lipid activity index): 3.46 ± 4.14 AU
[7]; [19]
  IL-1β secretion: 132.9 pg/mL
[7]; [15]
  IL-1β secretion: 271.6 pg/mL

## CCCCCCCCCCCCCCCC(=O)OCC(CSC[C@H](N)C(=O)N[C@@H](CO)C(=O)N[C@@H](CCCCN)C(=O)N[C@@H](CCCCN)C(=O)N[C@@H](CCCCN)C(=O)N[C@@H](CCCCN)C(=O)O)OC(=O)CCCCCCCCCCCCCCC (some centres unmarked) [Pam2CSK4] (H-C(X1)SKKKK-OH; N-terminus and C-terminus assumed)
[10]; [21]
  cell viability (in words): little to no effect on cell viability
[10]; low dose PAMP + 22:0 Lyso PC
  cell viability (in words): Neither R848 nor Pam2CSK4 at the lower concentrations tested affected cell viability
[11]; [21]
  IL-1β secretion (in words): enabled IL-1β secretion; also recorded: induced IL-1β secretion
[11]; low dose PAMP + 22:0 Lyso PC
  IL-1β secretion (in words): IL-1β secretion was only observed

## CCOC(=O)C1=Cc2ccc(-c3cccc(C#N)c3)cc2N=C(N)C1 [TL8-506]
[11]; [21]
  IL-1β secretion (in words): enabled IL-1β secretion; also recorded: induced IL-1β secretion

## GM-CSF: human GM-CSF (Peprotech), added at 10 ng/mL
Human PBMCs [1]; [12]
  IFNγ secretion, fold change relative to R848 alone (in words): neither GM-CSF nor 2′3′cGAMP elicited a substantial fold change in IFNγ secretion over R848 alone
  IL-1β secretion (in words): did not induce levels of IL-1β secretion from human PBMCs significantly above background levels
[2]
  IL-1β secretion (in words): neither GM-CSF nor 2′3′cGAMP induced significant IL-1β secretion
